Target: D1 receptor (Homo sapiens, UniProt P21728)
Assay: Calculated fraction of D1 receptors occupied from Ki and free drug concentration
Conditions: at a therapeutic olanzapine level
Description: In particular, affinities of many drugs for receptors are well known. For example, Goodman and Gilmans “The Pharmacological Basis of Therapeutics,” Tenth Edition. […] [formula]

Chain of D1 receptor (P21728 whole entry): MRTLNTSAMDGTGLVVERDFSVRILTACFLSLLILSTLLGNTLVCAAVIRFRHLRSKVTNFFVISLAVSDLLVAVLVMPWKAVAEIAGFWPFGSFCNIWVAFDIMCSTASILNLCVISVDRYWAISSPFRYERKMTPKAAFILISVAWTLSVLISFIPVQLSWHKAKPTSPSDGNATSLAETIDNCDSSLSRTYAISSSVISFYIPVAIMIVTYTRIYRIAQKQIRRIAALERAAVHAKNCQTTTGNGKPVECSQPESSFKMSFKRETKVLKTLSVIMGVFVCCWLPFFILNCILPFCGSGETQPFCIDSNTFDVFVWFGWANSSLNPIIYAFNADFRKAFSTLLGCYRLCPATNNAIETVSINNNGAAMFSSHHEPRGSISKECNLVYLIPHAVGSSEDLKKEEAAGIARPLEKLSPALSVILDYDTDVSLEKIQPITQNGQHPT

`Cc1cc2c(s1)Nc1ccccc1N=C2N1CCN(C)CC1` [olanzapine] was tested, and the “D1 receptors blocked (antagonized)” value was “approximately 47%”.

Source: patent US20060089824A1, “Methods and systems for drug screening and computational modeling” (priority 2002, published 2006)
